Reference: US9610371B2, “Anticancer therapy” (STC.UNM, priority 2005, dated 2017)
Entries after “also recorded” stand apart in the source; their conditions may differ. Where two headings read alike, the source gives them in different places. Positions of bridges follow the written chain, without caps; N, C: chain ends. Non-standard residues stand in square brackets, D forms with d. Residues, ends and D or L forms follow the SMILES beside them.

Tests used:
[1] = 25 day toxicology in tumor bearing male Lewis rats; type: in vivo, Lewis rat; settings: 25 days; 12.6 MBq ^213Bi-DOTATOC group and DOTATOC control group
Procedure: Toxicology was assessed at 25 days in 4 groups of tumor bearing male Lewis rats (average volume […]). Rats in the first group, Cohort 1, were injected on day 1 only. Rats in second cohort were injected on days 1 and 2, while rats in the third cohort were injected on days 1, 2, and 3. Rats were injected with 2.56 μg, 0.5 μg, 0.5 μg DOTATOC, on day 1, day 2 and day 3, respectively, with a nominal activity of 3.7 MBq. Each dose was divided into 2 injections at 1 hour intervals. The rats received the following cumulative average activities per group: Cohort 1 (N=3) received 4.3±0.7 MBq, Cohort 2 (N=3) received 9.0±0.4 MBq, and Cohort 3 (N=4) received 12.6±0.3 MBq of ^213Bi-DOTATOC. Cohort 4 (N=4) was added as control group and injected twice daily with unlabelled DOTATOC on three consecutive days.
After 24 days, the animals were put into a metabolic cage to collect urine samples for creatinine clearance analysis. Creatine clearance was determined as previously described (20). After 24 hour urine collection, the animals were euthanized with halothane. For blood collection, a cardiac puncture was performed. Blood analysis consisted of hemoglobin (Hgb), hematocrit (Hct), red blood cells (RBC's), and white blood cells (WBC's) with differential, and platelets (Pt's). Additionally T4 and FSH values were assessed using the serum.
Additional groups were then designed to study the effects of the treatment on a somatostatin receptor positive tumor. The first group was designed to study the effects of treatment on large volume tumors (average volume 1720±608 mm^3). This group, Cohort 5 (N=5), received three fractionated doses of ^213Bi-DOTATOC (specific activity 7.4 MBq ^213Bi/1 μG DOTATOC) with a total average cumulative dose of 13.0±0.5 MBq of ^213Bi-DOTATOC. The last cohort, the sixth cohort (N=4), was injected with two fractionated doses, ^213Bi-DOTATOC (specific activity 7.4 MBq ^213Bi/1 μG DOTATOC) with a total average cumulative dose of 22.2±0.7 MBq of ^213Bi-DOTATOC. As described earlier, each dose was divided into 2 injections separated by a 1 hour interval. Tumor response to the treatment was assessed in all cohorts by daily tumor measurements.
Organs were harvested and immediately placed in 10% formalin for a minimum of 48 hours. Following fixation in formalin, bone samples were placed in decalcifying solution for 36 hours. Trimmed organs were sent to the TriCore Laboratories (Albuquerque, N. Mex.) where they were embedded in paraffin, sectioned, and stained with Hematoxylin and Eosin (H and E). Histopathologic evaluation was performed by a board certified veterinary pathologist (DFK) who examined the following organs of each animal: heart, lung, kidneys, testicles, spleen, pancreas, pituitary bone marrow, urinary bladder, adrenals, and two different sections of the liver.
Sections of both the right and left kidneys were examined to determine nephrotoxicity in all cohorts. Bone marrow was examined to evaluate hypoplasia and other lesions in Cohorts 3 and 4. Interstitial nephritis and bone marrow were scored as follows: 0 no lesions, 1 minimal lesions, 2 mild lesions, 3 moderate lesions, and 4 severe lesions.
For the pathology scoring, to evaluate nephrotoxicity on the 6 treatment groups, a frequency analysis was performed in StatXact-5 using the Jonckheere-Terpstra Test. For all other data, graphs and calculations were performed in SigmaStat®-3 and SigmaPlot®-9 as well as Graph Pad Prism®-4 using the t-test. For all statistical tests results were considered significant when p<0.05. Animal biodistribution and tumor volume data are expressed as the average, plus or minus the SEM.

Capan-2 cells [2] = experiment: CellTiter-Glo Luminescent Cell Viability Assay, gemcitabine pre-treated and non-treated Capan-2; type: cell-based, human
Procedure: Effects of 37 kBq and 370 kBq of ^177Lu labeled DOTATOC and DOTA on gemcitabine pre-treated Capan-2 cells and non-treated cells were evaluated using CellTiter-Glo® Luminescent Cell Viability Assay (Promega, Madison, Wis.) and Cell Death Detection ELISA^PLUS10× (Roche Applied Sciences, IN) for apoptosis. Cell viability was evaluated at 24 and 48 hours of incubations.

Capan-2 cells [3] = experiment: Cell Death Detection ELISA PLUS apoptosis, gemcitabine pre-treated and non-treated Capan-2; type: cell-based, human; settings: 72 hours
Procedure: […] Capan-2 cells and non-treated cells were evaluated using CellTiter-Glo® Luminescent Cell Viability Assay (Promega, Madison, Wis.) and Cell Death Detection ELISA^PLUS10× (Roche Applied Sciences, IN) for apoptosis. Cell viability was evaluated at 24 and 48 hours of incubations.

Capan-2 = experiment: Apoptosis in Capan-2 cells, with or without gemcitabine pre-treatment; type: cell-based, human; settings: Capan-2, 1 μg/mL, FIG. 7
Excerpt: Alpha emitters such as ^213Bi are known to cause G2M arrest and induce apoptosis in cancer cell lines. Experiments were thus performed to evaluate radiation-induced apoptosis and the radiobiological and radiotherapeutical relevance of this mode of cell death in selection of a radionuclide for therapy.
Activation or down regulation of pro- and anti-apoptotic genes influence cancer cell viability, cancer cell sensitivity to chemotherapy and radiotherapy, and tumor development and progression. A variety of chemotherapeutic agents induce cell death via apoptosis. Gemcitabine is known to induce apoptosis primarily due to Bax overexpression, whereas Bcl-xl is known to reduce gemcitabine-induced apoptosis. In contrast, Capan-2 is […] to Fas-mediated apoptosis. […] The data is expressed as ±S.E.M. of mean apoptosis. […] But when combined with radiolabeled DOTATOC, a synergetic effect on induction of apoptosis is observed.

[4] = tested on: somatostatin receptor binding sites of Capan-2 cells; experiment: Radioligand assay of ^177Lu-DOTATOC binding after gemcitabine pre-treatment; type: cell-based, human; settings: 4 days 1 μg/mL pre-treatment and 4 days of replenishment
Procedure: A radioligand assay was performed to evaluate receptor binding by the recognition ligand after pre-treatment of 4 days with 1 μg/mL gemcitabine and 4 days of replenishment.

human sst1 = human sst1 (Homo sapiens, UniProt P30872); settings: cited from earlier work
Chain of human sst1 (P30872 whole entry): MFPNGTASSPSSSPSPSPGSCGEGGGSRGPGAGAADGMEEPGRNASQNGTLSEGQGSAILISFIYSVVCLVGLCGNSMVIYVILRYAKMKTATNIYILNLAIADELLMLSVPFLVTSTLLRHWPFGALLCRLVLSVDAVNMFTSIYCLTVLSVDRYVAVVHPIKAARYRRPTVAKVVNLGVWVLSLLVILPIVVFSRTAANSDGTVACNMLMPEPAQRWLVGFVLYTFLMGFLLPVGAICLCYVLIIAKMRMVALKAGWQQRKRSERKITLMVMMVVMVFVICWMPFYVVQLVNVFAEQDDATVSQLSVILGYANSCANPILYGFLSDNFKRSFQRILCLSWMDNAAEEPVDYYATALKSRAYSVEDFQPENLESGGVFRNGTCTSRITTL

human sst2 = human sst2 (Homo sapiens, UniProt P30874); settings: cited from earlier work
Chain of human sst2 (P30874 whole entry): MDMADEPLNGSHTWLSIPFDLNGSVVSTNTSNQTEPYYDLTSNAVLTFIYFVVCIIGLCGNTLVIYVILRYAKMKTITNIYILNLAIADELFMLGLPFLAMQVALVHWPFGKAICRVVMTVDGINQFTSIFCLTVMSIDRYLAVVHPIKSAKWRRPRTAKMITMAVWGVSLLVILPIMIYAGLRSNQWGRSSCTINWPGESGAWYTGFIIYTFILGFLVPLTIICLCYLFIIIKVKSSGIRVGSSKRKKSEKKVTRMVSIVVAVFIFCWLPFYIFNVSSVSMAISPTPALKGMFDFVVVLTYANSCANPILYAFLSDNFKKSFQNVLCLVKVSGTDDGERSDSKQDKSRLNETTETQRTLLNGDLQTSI

human sst3 = human sst3 (Homo sapiens, UniProt P32745); settings: cited from earlier work
Chain of human sst3 (P32745 whole entry): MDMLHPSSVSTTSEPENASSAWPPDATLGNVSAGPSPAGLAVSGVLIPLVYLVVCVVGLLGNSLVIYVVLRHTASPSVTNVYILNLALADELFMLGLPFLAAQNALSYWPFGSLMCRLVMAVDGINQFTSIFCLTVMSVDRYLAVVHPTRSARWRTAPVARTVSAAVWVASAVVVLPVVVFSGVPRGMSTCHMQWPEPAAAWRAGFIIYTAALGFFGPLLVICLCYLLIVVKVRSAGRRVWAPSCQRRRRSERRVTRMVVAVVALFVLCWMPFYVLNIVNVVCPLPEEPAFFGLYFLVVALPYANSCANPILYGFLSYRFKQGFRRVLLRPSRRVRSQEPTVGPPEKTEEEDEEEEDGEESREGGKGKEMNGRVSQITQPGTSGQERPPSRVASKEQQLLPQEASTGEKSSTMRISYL

human sst4 = human sst4 (Homo sapiens, UniProt P31391); settings: cited from earlier work
Chain of human sst4 (P31391 whole entry): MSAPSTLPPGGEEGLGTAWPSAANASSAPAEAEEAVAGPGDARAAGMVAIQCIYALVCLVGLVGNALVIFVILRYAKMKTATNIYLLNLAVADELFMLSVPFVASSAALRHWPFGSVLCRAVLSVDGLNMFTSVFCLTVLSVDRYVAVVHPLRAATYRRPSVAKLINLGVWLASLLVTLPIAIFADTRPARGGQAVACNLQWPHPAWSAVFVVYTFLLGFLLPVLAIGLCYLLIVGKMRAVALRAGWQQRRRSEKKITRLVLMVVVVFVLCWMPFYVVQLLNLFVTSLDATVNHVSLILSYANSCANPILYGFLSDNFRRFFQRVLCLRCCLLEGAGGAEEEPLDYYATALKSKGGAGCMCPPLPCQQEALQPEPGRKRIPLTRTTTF

[5] = tested on: human SSTR subtypes (SSTR1-SSTR5); settings: cited from earlier work

Row | Compound | affinity for sst1 (human sst1) | affinity for sst2 (human sst2) | affinity for sst3 (human sst3) | affinity for sst4 (human sst4) | other results
1 | C[C@@H](O)[C@@H]1NC(=O)[C@H](CCCCN)NC(=O)[C@@H](Cc2c[nH]c3ccccc23)NC(=O)[C@H](Cc2ccc(O)cc2)NC(=O)[C@@H](NC(=O)[C@@H](Cc2ccccc2)NC(=O)CN2CCN(CC(=O)O)CCN(CC(=O)O)CCN(CC(=O)O)CC2)CSSC[C@@H](C(=O)N[C@H](CO)[C@@H](C)O)NC1=O [DOTATOC, [DOTA^0, Tyr^3] octreotide] | – | – | – | – | bone marrow analysis (hypoplasia, hyperplasia, lesions) [1]: no lesions; effects on cell viability (Capan-2 cells [2]; 24 hours, 70 pM and 7 fM, gemcitabine pre-treated and non-treated Capan-2): no significant effects; effects on the induction of apoptosis (Capan-2 cells [3]; without radiolabel): minimal effects
2 | O=C([O-])CN1CCN(CC(=O)[O-])CCN(CC(=O)[O-])CCN(CC(=O)[O-])CC1.[177Lu+3].[H+] [^177Lu-DOTA] | – | – | – | – | effects of radiosensitivity induced by gemcitabine pre-treatment on cell viability (Capan-2 cells [2]; 24 hours, higher doses (370 kBq)): can be observed; effects of radiosensitivity induced by gemcitabine pre-treatment on cell viability (Capan-2 cells [2]; 48 hours, 370 kBq as well as 37 kBq): observed; effect on apoptosis, gemcitabine pre-treated vs non-treated Capan-2 (Capan-2 cells [3]): Enhancements of radiation induced apoptosis
3 | Nc1ccn([C@@H]2O[C@H](CO)[C@@H](O)C2(F)F)c(=O)n1 [gemcitabine, 2′,2′-difluoro-2′-deoxycytidine] | – | – | – | – | induction of apoptosis by itself (Capan-2): does not induce any significant amount of apoptosis; more binding sites than the non-treated Capan-2 cells [4]: ~70%
4 | CC(C)[C@@H]1NC(=O)[C@H](CCCCN)NC(=O)[C@@H](Cc2c[nH]c3ccccc23)NC(=O)[C@H](Cc2ccc(O)cc2)NC(=O)[C@@H](NC(=O)[C@H](N)Cc2ccc3ccccc3c2)CSSC[C@@H](C(=O)N[C@H](C(N)=O)[C@@H](C)O)NC1=O [lanreotide, D-βNal-Cys-Tyr-D-Trp-Lys-Val-Cys-Thr-NH2] | very low affinity | high affinity | moderate affinity; also recorded: lower affinity | very low affinity | affinity for sst4 (human sst4; listed as LAN): moderate affinity
5 | C[C@@H](O)[C@@H]1NC(=O)[C@H](CCCCN)NC(=O)[C@@H](Cc2c[nH]c3ccccc23)NC(=O)[C@H](Cc2ccccc2)NC(=O)[C@@H](NC(=O)[C@H](N)Cc2ccccc2)CSSC[C@@H](C(=O)N[C@H](CO)[C@@H](C)O)NC1=O [octreotide, D-Phe-Cys-Phe-D-Trp-Lys-Thr-Cys-Thr-OH] | very low affinity | high affinity | moderate affinity; also recorded: lower affinity | very low affinity | affinity for sst4 (human sst4; listed as OCT): little or no affinity
6 | CC(C)[C@@H]1NC(=O)[C@H](CCCCN)NC(=O)[C@@H](Cc2c[nH]c3ccccc23)NC(=O)[C@H](Cc2ccc(O)cc2)NC(=O)[C@@H](NC(=O)[C@H](N)Cc2ccccc2)CSSC[C@@H](C(=O)N[C@@H](Cc2c[nH]c3ccccc23)C(N)=O)NC1=O [vapreotide, D-Phe-Cys-Tyr-D-Trp-Lys-Val-Cys-Trp-NH2] (H-[dF]CY[dW]KVCW-NH2; disulfide 2-7) | very low affinity | high affinity | moderate affinity | moderate affinity | –
7 | SST-24: somatostatin form bound by all 5 human SSTR subtypes; probably a misprint of somatostatin-14 | – | – | – | – | binding to all 5 human SSTR subtypes [5]: high affinity
8 | SST-28: somatostatin variant that is a 28 amino acid peptide | – | – | – | – | binding to all 5 human SSTR subtypes [5]: high affinity
